Data published in ChEMBL document CHEMBL4428137, “Development of a Potent and Selective HDAC8 Inhibitor” (ACS Med Chem Lett, 2016).
Each block holds one compound with its values, some of them ahead of it. Active and inactive are the calls of the source. No cut-off for these calls is given here.

Key:
Histone deacetylase 8 = target: T1, Histone deacetylase 8 (Homo sapiens, UniProt Q9BY41); experiment: (§1) Inhibition of HDAC8 (unknown origin) using fluorophore-conjugated substrate by fluorescence assay
T1 sequence (Q9BY41 whole entry): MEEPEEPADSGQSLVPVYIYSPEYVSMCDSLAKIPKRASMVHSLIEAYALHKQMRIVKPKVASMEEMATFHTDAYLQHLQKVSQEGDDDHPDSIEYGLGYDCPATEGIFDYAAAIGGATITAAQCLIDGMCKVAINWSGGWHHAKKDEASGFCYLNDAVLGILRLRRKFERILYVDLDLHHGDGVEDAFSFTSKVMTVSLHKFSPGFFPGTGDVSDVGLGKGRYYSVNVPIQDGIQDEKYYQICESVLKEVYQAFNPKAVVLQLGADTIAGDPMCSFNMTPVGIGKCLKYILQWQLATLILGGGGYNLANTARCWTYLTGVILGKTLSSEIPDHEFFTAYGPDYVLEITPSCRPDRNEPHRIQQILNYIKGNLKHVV

[1] = target: T2, Histone deacetylase 8 (Homo sapiens) (UniProt Q9BY41); experiment: as §1
T2 sequence (whole entry): T1 sequence (Q9BY41 whole entry)

Histone deacetylase 5 = Histone deacetylase 5 (Homo sapiens, UniProt Q9UQL6); experiment: Inhibition of HDAC5 (unknown origin)
Histone deacetylase 5, sequence (Q9UQL6 whole entry, the tested form may be a part): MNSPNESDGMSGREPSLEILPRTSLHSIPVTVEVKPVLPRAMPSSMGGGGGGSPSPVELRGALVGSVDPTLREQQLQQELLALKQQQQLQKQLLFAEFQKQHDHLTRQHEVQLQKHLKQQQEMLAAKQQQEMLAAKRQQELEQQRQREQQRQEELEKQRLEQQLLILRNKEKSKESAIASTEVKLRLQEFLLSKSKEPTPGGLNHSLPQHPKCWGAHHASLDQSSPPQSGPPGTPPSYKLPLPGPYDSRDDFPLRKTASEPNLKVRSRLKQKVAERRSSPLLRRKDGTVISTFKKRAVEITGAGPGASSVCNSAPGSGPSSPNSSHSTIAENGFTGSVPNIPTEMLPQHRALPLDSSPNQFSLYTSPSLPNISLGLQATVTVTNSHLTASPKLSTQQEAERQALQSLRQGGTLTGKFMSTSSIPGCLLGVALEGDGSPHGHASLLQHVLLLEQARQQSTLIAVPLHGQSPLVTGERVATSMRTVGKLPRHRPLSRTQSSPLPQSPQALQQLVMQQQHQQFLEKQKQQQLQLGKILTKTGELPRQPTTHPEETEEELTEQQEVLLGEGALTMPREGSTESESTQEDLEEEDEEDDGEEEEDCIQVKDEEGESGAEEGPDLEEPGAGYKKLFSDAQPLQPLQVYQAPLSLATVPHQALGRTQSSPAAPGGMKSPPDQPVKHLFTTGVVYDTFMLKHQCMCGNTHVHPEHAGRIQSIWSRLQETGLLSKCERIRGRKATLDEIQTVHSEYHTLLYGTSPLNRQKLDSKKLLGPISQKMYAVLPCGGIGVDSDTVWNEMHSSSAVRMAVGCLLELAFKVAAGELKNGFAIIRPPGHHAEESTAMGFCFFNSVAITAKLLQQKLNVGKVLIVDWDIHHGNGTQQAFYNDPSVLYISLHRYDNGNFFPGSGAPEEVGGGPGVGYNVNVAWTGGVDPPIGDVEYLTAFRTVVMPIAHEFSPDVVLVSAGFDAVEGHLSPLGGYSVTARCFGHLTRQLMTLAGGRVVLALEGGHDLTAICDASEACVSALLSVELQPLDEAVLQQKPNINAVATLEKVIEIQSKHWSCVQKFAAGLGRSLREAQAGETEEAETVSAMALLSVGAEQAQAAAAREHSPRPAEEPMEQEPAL

Histone deacetylase 3 = Histone deacetylase 3 (Homo sapiens, UniProt O15379); experiment: Inhibition of recombinant full length human C-terminal His-tagged HDAC3 expressed in sf9 cells co-expressing human N-terminal GST-tagged NCOR2 (395 to 489 residues) using fluorophore-conjugated substrate by fluorescence assay
Histone deacetylase 3, sequence (O15379 whole entry, the tested form may be a part): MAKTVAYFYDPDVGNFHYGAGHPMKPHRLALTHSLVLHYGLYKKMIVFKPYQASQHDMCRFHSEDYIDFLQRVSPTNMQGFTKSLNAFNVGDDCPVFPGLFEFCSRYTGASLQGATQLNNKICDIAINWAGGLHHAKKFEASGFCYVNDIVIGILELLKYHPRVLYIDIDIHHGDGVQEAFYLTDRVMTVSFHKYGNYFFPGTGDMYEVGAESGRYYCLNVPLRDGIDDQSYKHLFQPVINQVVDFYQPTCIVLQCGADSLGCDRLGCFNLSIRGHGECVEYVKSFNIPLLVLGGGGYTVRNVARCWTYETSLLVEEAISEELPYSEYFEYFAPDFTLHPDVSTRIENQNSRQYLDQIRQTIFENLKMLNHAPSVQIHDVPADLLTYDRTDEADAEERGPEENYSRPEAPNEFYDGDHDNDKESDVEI

Histone deacetylase 4 = Histone deacetylase 4 (Homo sapiens, UniProt P56524); experiment: Inhibition of HDAC4 (unknown origin)
Histone deacetylase 4, sequence (P56524 whole entry): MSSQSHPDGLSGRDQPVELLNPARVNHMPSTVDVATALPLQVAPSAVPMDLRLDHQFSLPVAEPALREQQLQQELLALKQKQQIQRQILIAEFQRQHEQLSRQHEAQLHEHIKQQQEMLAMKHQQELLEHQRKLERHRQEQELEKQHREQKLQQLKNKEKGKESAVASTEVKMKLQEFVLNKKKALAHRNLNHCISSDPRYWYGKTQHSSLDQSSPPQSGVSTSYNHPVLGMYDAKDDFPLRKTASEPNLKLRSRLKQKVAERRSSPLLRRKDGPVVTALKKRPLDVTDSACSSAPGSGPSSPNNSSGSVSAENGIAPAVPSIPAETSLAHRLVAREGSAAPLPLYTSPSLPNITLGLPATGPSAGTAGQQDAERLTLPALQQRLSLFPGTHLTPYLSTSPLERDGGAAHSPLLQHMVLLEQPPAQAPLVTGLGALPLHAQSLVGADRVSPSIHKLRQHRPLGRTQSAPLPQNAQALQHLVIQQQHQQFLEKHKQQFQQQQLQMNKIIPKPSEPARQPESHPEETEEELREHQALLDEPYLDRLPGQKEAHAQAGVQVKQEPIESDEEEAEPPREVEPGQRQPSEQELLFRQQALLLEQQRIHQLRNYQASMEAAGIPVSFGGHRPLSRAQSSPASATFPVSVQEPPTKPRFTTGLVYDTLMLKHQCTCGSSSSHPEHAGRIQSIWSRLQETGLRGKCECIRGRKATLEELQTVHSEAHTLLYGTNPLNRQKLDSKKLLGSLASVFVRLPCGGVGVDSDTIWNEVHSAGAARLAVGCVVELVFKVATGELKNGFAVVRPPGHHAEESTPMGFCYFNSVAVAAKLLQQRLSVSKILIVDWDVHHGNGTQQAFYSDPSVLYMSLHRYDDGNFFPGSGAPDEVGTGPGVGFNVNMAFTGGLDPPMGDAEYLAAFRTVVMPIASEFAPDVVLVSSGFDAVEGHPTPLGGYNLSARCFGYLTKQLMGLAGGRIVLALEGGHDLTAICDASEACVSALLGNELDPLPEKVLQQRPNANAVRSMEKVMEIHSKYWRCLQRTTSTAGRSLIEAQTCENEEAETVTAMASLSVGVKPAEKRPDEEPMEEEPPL

[2] = target: T3, Protein deacetylase HDAC6 (Homo sapiens) (UniProt Q9UBN7); experiment: (§2) Inhibition of recombinant full length human HDAC6 expressed in sf9 cells using fluorophore-conjugated substrate by fluorescence assay
T3 sequence (whole entry): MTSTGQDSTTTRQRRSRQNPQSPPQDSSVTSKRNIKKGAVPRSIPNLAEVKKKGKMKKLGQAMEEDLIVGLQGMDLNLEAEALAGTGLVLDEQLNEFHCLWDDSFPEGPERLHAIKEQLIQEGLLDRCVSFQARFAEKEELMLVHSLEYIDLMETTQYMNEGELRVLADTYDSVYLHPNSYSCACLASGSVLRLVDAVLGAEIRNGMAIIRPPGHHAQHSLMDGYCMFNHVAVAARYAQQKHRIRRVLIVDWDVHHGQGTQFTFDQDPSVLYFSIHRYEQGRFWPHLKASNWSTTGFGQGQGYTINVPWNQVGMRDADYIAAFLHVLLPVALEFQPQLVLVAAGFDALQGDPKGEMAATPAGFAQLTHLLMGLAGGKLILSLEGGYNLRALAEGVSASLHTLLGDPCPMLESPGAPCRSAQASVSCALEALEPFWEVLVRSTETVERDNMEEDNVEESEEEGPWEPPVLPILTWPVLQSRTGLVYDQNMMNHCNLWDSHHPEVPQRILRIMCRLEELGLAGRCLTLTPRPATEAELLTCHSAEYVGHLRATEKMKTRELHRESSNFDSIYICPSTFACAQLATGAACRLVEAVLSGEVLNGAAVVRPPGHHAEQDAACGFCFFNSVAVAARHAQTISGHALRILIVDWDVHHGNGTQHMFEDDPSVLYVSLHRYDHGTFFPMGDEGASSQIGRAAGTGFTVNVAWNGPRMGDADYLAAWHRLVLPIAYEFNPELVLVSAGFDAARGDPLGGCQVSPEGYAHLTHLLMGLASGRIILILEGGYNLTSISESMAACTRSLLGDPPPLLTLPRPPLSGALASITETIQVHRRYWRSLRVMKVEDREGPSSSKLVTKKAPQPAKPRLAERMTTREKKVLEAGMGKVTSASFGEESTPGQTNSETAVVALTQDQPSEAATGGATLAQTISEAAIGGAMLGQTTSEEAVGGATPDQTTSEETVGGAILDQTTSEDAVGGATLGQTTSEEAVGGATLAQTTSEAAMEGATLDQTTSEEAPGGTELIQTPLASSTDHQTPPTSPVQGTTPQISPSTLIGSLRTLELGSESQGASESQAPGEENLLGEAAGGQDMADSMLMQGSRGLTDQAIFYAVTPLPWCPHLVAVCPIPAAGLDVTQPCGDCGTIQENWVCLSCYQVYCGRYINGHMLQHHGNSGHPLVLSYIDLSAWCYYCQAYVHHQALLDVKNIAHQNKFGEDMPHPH

Histone deacetylase 9 = Histone deacetylase 9 (Homo sapiens, UniProt Q9UKV0); experiment: Inhibition of HDAC9 (unknown origin)
Histone deacetylase 9, sequence (Q9UKV0 whole entry): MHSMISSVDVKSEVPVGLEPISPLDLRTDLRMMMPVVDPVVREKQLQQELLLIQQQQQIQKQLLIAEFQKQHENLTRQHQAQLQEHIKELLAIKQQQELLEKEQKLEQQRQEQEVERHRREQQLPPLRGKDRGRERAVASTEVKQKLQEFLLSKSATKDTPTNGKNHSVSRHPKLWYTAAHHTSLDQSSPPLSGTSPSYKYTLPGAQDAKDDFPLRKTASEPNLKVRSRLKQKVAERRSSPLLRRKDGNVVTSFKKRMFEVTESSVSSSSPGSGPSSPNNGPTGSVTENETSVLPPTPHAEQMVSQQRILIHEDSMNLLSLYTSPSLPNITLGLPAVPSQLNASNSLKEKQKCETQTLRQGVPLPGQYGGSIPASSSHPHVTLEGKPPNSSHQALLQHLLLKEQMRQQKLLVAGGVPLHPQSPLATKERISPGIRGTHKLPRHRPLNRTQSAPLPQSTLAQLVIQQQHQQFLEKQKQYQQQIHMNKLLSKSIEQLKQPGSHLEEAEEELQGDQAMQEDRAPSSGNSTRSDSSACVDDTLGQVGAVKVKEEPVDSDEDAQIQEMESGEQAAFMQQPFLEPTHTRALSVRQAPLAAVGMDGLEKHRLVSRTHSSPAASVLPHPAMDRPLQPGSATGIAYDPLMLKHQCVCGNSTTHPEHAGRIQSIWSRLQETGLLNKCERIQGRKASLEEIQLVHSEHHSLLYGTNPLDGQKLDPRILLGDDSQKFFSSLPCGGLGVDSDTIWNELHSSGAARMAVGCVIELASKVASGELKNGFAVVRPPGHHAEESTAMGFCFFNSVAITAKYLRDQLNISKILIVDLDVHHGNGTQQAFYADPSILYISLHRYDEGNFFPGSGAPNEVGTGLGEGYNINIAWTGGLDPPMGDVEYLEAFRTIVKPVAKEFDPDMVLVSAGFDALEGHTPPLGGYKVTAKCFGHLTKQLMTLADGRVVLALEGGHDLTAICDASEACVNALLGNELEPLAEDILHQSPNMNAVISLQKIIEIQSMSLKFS

Histone deacetylase 1 = Histone deacetylase 1 (Homo sapiens, UniProt Q13547); experiment: Inhibition of recombinant full length human C-terminal FLAG/His-tagged HDAC1 expressed in baculovirus expression system using fluorophore-conjugated substrate by fluorescence assay
Histone deacetylase 1, sequence (Q13547 whole entry): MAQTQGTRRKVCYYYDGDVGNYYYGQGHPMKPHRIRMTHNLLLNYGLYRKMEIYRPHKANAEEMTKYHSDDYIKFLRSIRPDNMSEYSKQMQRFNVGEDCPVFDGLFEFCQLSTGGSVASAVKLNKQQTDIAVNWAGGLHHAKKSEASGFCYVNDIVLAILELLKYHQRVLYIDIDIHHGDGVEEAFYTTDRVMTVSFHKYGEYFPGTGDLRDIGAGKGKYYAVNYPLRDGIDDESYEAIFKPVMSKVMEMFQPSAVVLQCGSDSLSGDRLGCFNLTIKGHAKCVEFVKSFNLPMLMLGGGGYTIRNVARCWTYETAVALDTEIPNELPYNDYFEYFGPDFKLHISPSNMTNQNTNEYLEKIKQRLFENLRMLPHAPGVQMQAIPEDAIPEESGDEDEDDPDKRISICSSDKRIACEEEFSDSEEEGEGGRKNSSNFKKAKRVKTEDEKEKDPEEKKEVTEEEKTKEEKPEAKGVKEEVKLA

Histone deacetylase 2 = Histone deacetylase 2 (Homo sapiens, UniProt Q92769); experiment: Inhibition of recombinant full length human HDAC2 expressed in sf9 cells using fluorophore-conjugated substrate by fluorescence assay
Histone deacetylase 2, sequence (Q92769 whole entry): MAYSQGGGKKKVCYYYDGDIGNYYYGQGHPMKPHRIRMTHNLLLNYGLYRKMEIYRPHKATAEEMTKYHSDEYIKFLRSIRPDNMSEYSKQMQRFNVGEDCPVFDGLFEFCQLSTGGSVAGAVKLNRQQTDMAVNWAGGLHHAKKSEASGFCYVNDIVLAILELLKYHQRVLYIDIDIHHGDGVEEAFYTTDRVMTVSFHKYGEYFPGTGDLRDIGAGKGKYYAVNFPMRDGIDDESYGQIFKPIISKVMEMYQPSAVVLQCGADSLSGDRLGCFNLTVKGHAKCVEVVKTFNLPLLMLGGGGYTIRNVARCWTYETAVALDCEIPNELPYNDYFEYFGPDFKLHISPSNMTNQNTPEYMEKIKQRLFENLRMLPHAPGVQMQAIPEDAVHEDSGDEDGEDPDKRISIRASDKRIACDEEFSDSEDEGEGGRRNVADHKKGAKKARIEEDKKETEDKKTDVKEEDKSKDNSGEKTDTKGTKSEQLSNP

[3] = target: T4, Histone deacetylase 7 (Homo sapiens) (UniProt Q8WUI4); experiment: (§3) Inhibition of HDAC7 (unknown origin)
T4 sequence (whole entry): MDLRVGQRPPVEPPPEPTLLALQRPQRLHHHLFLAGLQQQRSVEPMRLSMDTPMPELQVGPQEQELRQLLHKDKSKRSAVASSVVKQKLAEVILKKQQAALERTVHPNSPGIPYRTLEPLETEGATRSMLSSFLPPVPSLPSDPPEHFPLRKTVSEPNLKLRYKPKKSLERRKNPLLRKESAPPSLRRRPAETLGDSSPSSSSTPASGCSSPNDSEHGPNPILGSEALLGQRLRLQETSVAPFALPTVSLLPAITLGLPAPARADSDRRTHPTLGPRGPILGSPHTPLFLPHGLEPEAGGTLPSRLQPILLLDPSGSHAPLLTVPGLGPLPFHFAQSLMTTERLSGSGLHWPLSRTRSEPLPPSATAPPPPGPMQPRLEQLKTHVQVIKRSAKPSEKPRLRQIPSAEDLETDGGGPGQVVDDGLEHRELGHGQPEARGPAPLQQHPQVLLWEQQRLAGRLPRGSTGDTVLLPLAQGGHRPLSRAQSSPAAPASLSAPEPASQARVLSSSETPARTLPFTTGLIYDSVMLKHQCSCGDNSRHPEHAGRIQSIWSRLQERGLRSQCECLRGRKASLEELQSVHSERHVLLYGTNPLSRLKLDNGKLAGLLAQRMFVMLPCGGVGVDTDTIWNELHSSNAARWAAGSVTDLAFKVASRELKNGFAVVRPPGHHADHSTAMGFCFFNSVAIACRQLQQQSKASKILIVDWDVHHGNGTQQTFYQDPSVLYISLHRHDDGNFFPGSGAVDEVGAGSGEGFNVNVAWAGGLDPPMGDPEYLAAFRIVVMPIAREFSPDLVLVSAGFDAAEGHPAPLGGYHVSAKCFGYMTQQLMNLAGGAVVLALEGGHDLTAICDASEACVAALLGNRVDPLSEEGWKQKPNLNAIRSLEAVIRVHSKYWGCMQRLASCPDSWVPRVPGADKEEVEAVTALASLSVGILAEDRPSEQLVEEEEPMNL

[4] = target: T5, Protein deacetylase HDAC6 (Homo sapiens, UniProt Q9UBN7); experiment: as §2
T5 sequence (Q9UBN7 whole entry): T3 sequence (whole entry)

Histone deacetylase 7 = target: T6, Histone deacetylase 7 (Homo sapiens, UniProt Q8WUI4); experiment: as §3
T6 sequence (Q8WUI4 whole entry): T4 sequence (whole entry)

IC50 (Histone deacetylase 8): 0.16 µM
Structure (SMILES): CCCCCc1c(-c2ccccc2)nnn1[C@@H](Cc1ccccc1)C(=O)NO

IC50 (Histone deacetylase 8): 0.007 µM
Structure (SMILES): O=C(NO)[C@H](Cc1c[nH]c2ccccc12)n1nnc(-c2ccccc2)c1C#CC1CC1

inhibition [1]: inactive
Structure (SMILES): O=C(NO)[C@H](Cc1ccccc1)n1nnc(-c2ccccc2)c1/C=C/C1CC1

inhibition (Histone deacetylase 5): inactive
inhibition (Histone deacetylase 3): inactive
inhibition (Histone deacetylase 4): inactive
inhibition [1]: inactive
inhibition [2]: inactive
inhibition (Histone deacetylase 9): inactive
inhibition (Histone deacetylase 1): inactive
inhibition (Histone deacetylase 2): inactive
inhibition [3]: inactive
Structure (SMILES): O=C(NO)[C@@H](Cc1ccccc1)n1nnc(-c2ccccc2)c1C#Cc1ccccc1

inhibition (Histone deacetylase 5): inactive
inhibition (Histone deacetylase 3): inactive
inhibition (Histone deacetylase 4): inactive
inhibition [1]: inactive
inhibition [2]: inactive
inhibition (Histone deacetylase 9): inactive
inhibition (Histone deacetylase 1): inactive
inhibition (Histone deacetylase 2): inactive
inhibition [3]: inactive
Structure (SMILES): COC(=O)[C@H](Cc1ccccc1)n1nnc(-c2ccccc2)c1C#Cc1ccccc1

IC50 (Histone deacetylase 8): 0.464 µM
Structure (SMILES): CCC/C=C/c1c(-c2ccccc2)nnn1[C@@H](Cc1ccccc1)C(=O)NO

IC50 (Histone deacetylase 8): 9.1 µM
Structure (SMILES): O=C(NO)[C@H](Cc1ccccc1)n1nnc(-c2ccccc2)c1C#Cc1ccc(-c2ccccc2)cc1

inhibition (Histone deacetylase 5): inactive
inhibition (Histone deacetylase 3): inactive
inhibition (Histone deacetylase 4): inactive
inhibition [1]: inactive
inhibition [2]: inactive
inhibition (Histone deacetylase 9): inactive
inhibition (Histone deacetylase 1): inactive
inhibition (Histone deacetylase 2): inactive
inhibition [3]: inactive
Structure (SMILES): O=C(O)[C@H](Cc1ccccc1)n1nnc(-c2ccccc2)c1C#Cc1ccccc1

IC50 (Histone deacetylase 8): 1.5 µM
Structure (SMILES): CCc1ccc(C#Cc2c(-c3ccccc3)nnn2[C@@H](Cc2ccccc2)C(=O)NO)cc1

IC50 (Histone deacetylase 8): 0.004 µM
Structure (SMILES): O=C(NO)[C@H](Cc1ccccc1)n1nnc(-c2ccsc2)c1C#CC1CC1

IC50 (Histone deacetylase 8): 2.3 µM
Structure (SMILES): CC(C)[C@@H](C(=O)NO)n1nnc(-c2ccccc2)c1C#Cc1ccccc1

IC50 (Histone deacetylase 5): > 20 µM
IC50 (Histone deacetylase 3): > 20 µM
IC50 (Histone deacetylase 4): > 20 µM
IC50 (Histone deacetylase 8): 0.0008 µM
IC50 [4]: 1.2 µM
IC50 (Histone deacetylase 9): > 20 µM
IC50 (Histone deacetylase 1): 4.3 µM
IC50 (Histone deacetylase 2): > 20 µM
IC50 (Histone deacetylase 7): > 20 µM
Structure (SMILES): O=C(NO)[C@H](Cc1ccccc1)n1nnc(-c2ccccc2)c1C#CC1CC1

IC50 (Histone deacetylase 5): > 20 µM
IC50 (Histone deacetylase 3): > 20 µM
IC50 (Histone deacetylase 4): > 20 µM
IC50 (Histone deacetylase 8): 0.01 µM
IC50 [4]: 3.6 µM
IC50 (Histone deacetylase 9): > 20 µM
IC50 (Histone deacetylase 1): > 20 µM
IC50 (Histone deacetylase 2): > 20 µM
IC50 (Histone deacetylase 7): > 20 µM
Structure (SMILES): O=C(NO)[C@H](Cc1ccccc1)n1nnc(-c2ccccc2)c1C#Cc1ccccc1

IC50 (Histone deacetylase 8): 0.133 µM
Structure (SMILES): CC(C)(C)c1ccc(-c2nnn([C@@H](Cc3ccccc3)C(=O)NO)c2C#CC2CC2)cc1

inhibition (Histone deacetylase 5): inactive
inhibition (Histone deacetylase 3): inactive
inhibition (Histone deacetylase 4): inactive
inhibition [1]: inactive
inhibition [2]: inactive
inhibition (Histone deacetylase 9): inactive
inhibition (Histone deacetylase 1): inactive
inhibition (Histone deacetylase 2): inactive
inhibition [3]: inactive
Structure (SMILES): CNC(=O)[C@H](Cc1ccccc1)n1nnc(-c2ccccc2)c1C#Cc1ccccc1

inhibition (Histone deacetylase 5): inactive
inhibition (Histone deacetylase 3): inactive
inhibition (Histone deacetylase 4): inactive
inhibition [1]: inactive
inhibition [2]: inactive
inhibition (Histone deacetylase 9): inactive
inhibition (Histone deacetylase 1): inactive
inhibition (Histone deacetylase 2): inactive
inhibition [3]: inactive
Structure (SMILES): O=C(NO)[C@H](Cc1ccccc1)n1cc(-c2ccccc2)nn1

IC50 (Histone deacetylase 8): 0.008 µM
Structure (SMILES): O=C(NO)[C@H](Cc1ccccc1)n1nnc(-c2cccc(Cl)c2)c1C#CC1CC1

IC50 (Histone deacetylase 8): 0.003 µM
Structure (SMILES): COc1cc(OC)cc(-c2nnn([C@@H](Cc3ccccc3)C(=O)NO)c2C#CC2CC2)c1

inhibition [1]: inactive
Structure (SMILES): O=C(NO)[C@H](Cc1ccccc1)n1nnc(-c2ccccc2)c1CCC1CC1
